Data on 28 compounds can be found in patent US11739100B2, “2,3-dihydro-1h-imidazo{1,2-a}pyrimidin-5-one and this 1,2,3,4-tetrahydropyrimido{1,2-a}pyrimidin-6-one derivatives comprising a substituted morpholine, preparation thereof and pharmaceutical use thereof” (SANOFI, priority 2012, dated 2023).

The term IC50 denotes the midpoint of a concentration-inhibition curve.

The structures appear in SMILES notation.

The assay deals with T1, recombinant Vps34 (Homo sapiens, UniProt Q8NEB9).
T1 construct: purchased Invitrogen PV5126
T1 sequence (Q8NEB9 whole entry): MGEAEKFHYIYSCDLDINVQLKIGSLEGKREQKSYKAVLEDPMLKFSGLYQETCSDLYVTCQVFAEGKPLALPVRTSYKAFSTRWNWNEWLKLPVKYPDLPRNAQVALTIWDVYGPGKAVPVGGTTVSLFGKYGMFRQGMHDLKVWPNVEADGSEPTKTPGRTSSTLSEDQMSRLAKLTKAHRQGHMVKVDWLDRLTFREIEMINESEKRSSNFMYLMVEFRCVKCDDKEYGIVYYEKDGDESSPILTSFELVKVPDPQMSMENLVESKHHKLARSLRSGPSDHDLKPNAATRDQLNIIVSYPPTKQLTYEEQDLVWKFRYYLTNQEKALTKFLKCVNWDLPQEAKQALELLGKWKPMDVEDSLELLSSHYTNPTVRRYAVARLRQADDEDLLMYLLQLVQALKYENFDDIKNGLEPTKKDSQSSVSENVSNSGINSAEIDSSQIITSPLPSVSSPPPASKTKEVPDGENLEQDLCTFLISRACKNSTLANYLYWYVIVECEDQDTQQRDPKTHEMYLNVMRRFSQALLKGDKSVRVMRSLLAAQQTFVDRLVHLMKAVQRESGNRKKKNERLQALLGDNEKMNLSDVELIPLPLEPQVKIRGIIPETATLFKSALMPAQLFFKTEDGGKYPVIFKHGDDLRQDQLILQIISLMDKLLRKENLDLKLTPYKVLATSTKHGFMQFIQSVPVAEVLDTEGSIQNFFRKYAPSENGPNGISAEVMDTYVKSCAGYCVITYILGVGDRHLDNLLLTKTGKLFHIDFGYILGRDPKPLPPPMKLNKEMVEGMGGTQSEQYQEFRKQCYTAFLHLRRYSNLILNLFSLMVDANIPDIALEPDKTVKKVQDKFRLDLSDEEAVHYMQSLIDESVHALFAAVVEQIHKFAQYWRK
The assay is described as follows: Phosphorylation of phosphatidylinositol (PI) by Vps34 in vitro, ADP detected by TR-FRET (HTRF Transcreener ADP). In kind it is biochemical. Particulars: 10 μM ATP, 55 μg/ml PI, approximately 3 nM Vps34, 1 hour at ambient temperature; absolute IC50, mean of two independent experiments; read-out: IC50 activity range.
Take `CCC(=O)CN1c2nc(N3CCOC[C@H]3C)cc(=O)n2CC[C@H]1C(F)(F)F` [Example 16, (S)-2-((R)-3-Methyl-morpholin-4-yl)-9-(2-oxobutyl)-8-trifluoromethyl-6,7,8,9-tetrahydro-pyrimido[1,2-a]-pyrimidin-4-one]: the IC50 is < 10 nM. The value for `Cc1noc(CN2c3nc(N4CCOC[C@H]4C)cc(=O)n3CC[C@H]2C(F)(F)F)n1` [Example 17, (S)-2-((R)-3-Methyl-morpholin-4-yl)-9-(3-methyl-[1,2,4]oxadiazol-5-yl-methyl)-8-trifluoromethyl-6,7,8,9-tetrahydro-pyrimido[1,2-a]-pyrimidin-4-one] was < 10 nM; that for `C[C@@H]1COCCN1c1nc2n(c(=O)c1F)CC[C@@H](C(F)(F)F)N2CC(=O)C1CCOCC1` [Example 18, (S)-3-Fluoro-2-((R)-3-methylmorpholin-4-yl)-9-[2-oxo-2-(tetrahydro-pyran-4-yl)ethyl]-8-trifluoromethyl-6,7,8,9-tetrahydro-pyrimido[1,2-a]-pyrimidin-4-one] was < 10 nM; that for `Cc1noc(CN2c3nc(N4CCOC[C@H]4C)c(F)c(=O)n3CC[C@H]2C(F)(F)F)n1` [Example 19, (S)-3-Fluoro-2-((R)-3-methylmorpholin-4-yl)-9-(3-methyl-[1,2,4]oxadiazol-5-yl-methyl)-8-trifluoromethyl-6,7,8,9-tetrahydro-pyrimido[1,2-a]-pyrimidin-4-one] was < 10 nM.

For the compound `COCCN1c2nc(N3CCOC[C@H]3C)c(F)c(=O)n2CC[C@H]1C(F)(F)F` [Example 20, (S)-3-Fluoro-9-(2-methoxy-ethyl)-2-((R)-3-methylmorpholin-4-yl)-8-trifluoromethyl-6,7,8,9-tetrahydro-pyrimido[1,2-a]-pyrimidin-4-one], the IC50 is < 10 nM. On to `Cc1nc(CN2CC[C@H](C(F)(F)F)n3c2nc(N2CCOC[C@H]2C)c(F)c3=O)no1` [Example 21, (R)-3-Fluoro-2-((R)-3-methylmorpholin-4-yl)-9-(5-methyl-[1,2,4]oxadiazol-3-yl-methyl)-6-trifluoromethyl-6,7,8,9-tetrahydro-pyrimido[1,2-a]-pyrimidin-4-one], for which the IC50 was < 10 nM. As to `CCC(=O)CN1c2nc(N3CCOC[C@H]3C)c(F)c(=O)n2CC[C@H]1C(F)(F)F` [Example 22, (S)-3-Fluoro-2-((R)-3-methylmorpholin-4-yl)-9-(2-oxobutyl)-8-trifluoromethyl-6,7,8,9-tetrahydro-pyrimido[1,2-a]-pyrimidin-4-one], the IC50 is < 10 nM. For `CON(C)C(=O)CN1c2nc(N3CCOC[C@H]3C)c(F)c(=O)n2CC[C@H]1C(F)(F)F` [Example 23, 2-[(S)-7-Fluoro-8-((R)-3-methylmorpholin-4-yl)-6-oxo-2-trifluoromethyl-3,4-dihydro-2H,6H-pyrimido[1,2-a]-pyrimidin-1-yl]-N-methoxy-N-methyl-acetamide], the IC50 was < 10 nM.

Take `C[C@@H]1COCCN1c1cc(=O)n2c(n1)N(Cc1ccc(F)nc1)[C@H](C(F)(F)F)CC2` [Example 24, (S)-9-(6-Fluoropyridin-3-ylmethyl)-2-((R)-3-methylmorpholin-4-yl)-8-trifluoromethyl-6,7,8,9-tetrahydro-pyrimido[1,2-a]-pyrimidin-4-one]: the half-maximal inhibitory concentration (IC50) was < 10 nM.

In the case of `C[C@@H]1COCCN1c1cc(=O)n2c(n1)N(CC(=O)c1ccnc(F)c1)[C@H](C(F)(F)F)CC2` [Example 25, (S)-9-[2-(2-Fluoro-pyridin-4-yl)-2-oxo-ethyl]-2-((R)-3-methyl-morpholin-4-yl)-8-trifluoromethyl-6,7,8,9-tetrahydro-pyrimido[1,2-a]-pyrimidin-4-one], the IC50 is < 10 nM. The value for `CCC(=O)CN1CC[C@H](C(F)(F)F)n2c1nc(N1CCOC[C@H]1C)cc2=O` [Example 26, (R)-2-((R)-3-Methyl-morpholin-4-yl)-9-(2-oxobutyl)-6-trifluoromethyl-6,7,8,9-tetrahydro-pyrimido[1,2-a]-pyrimidin-4-one] was < 10 nM; that for `Cc1nc(CN2CC[C@H](C(F)(F)F)n3c2nc(N2CCOC[C@H]2C)cc3=O)no1` [Example 27, (R)-2-((R)-3-Methyl-morpholin-4-yl)-9-(5-methyl-[1,2,4]oxadiazol-3-yl-methyl)-6-trifluoromethyl-6,7,8,9-tetrahydro-pyrimido[1,2-a]-pyrimidin-4-one] was < 10 nM; that for `C[C@@H]1COCCN1c1nc2n(c(=O)c1F)[C@@H](C(F)(F)F)CCN2Cc1nc(C(F)(F)F)no1` [Example 28, (R)-3-Fluoro-2-((R)-3-methylmorpholin-4-yl)-6-trifluoromethyl-9-(3-trifluoromethyl-[1,2,4]oxadiazol-5-yl-methyl)-6,7,8,9-tetrahydro-pyrimido[1,2-a]-pyrimidin-4-one] was < 10 nM. The value for `CCC(=O)CN1CC[C@H](C(F)(F)F)n2c1nc(N1CCOC[C@H]1C)c(F)c2=O` [Example 29, (R)-3-Fluoro-2-((R)-3-methylmorpholin-4-yl)-9-(2-oxobutyl)-6-trifluoromethyl-6,7,8,9-tetrahydro-pyrimido[1,2-a]-pyrimidin-4-one] was < 10 nM; that for `Cc1nc(CN2c3nc(N4CCOC[C@H]4C)c(F)c(=O)n3C[C@@]2(C)C(F)(F)F)no1` [Example 30, (S)-6-Fluoro-2-methyl-7-((R)-3-methyl-morpholin-4-yl)-1-(5-methyl-[1,2,4]oxadiazol-3-yl-methyl)-2-trifluoromethyl-2,3-dihydro-1H-imidazo[1,2-a]-pyrimidin-5-one] was < 10 nM; that for `C[C@@H]1COCCN1c1cc(=O)n2c(n1)N(CC(=O)C1CC1)[C@](C)(C(F)(F)F)C2` [Example 31, (S)-1-(2-Cyclopropyl-2-oxoethyl)-2-methyl-7-((R)-3-methyl-morpholin-4-yl)-2-trifluoromethyl-2,3-dihydro-1H-imidazo[1,2-a]-pyrimidin-5-one] was < 10 nM. The value for `C[C@@H]1COCCN1c1cc(=O)n2c(n1)N(Cc1ccn(C(F)F)n1)[C@H](C(F)(F)F)CC2` [Example 32, (S)-9-(1-Difluoromethyl-1H-pyrazol-3-ylmethyl)-2-((R)-3-methyl-morpholin-4-yl)-8-trifluoromethyl-6,7,8,9-tetrahydro-pyrimido[1,2-a]-pyrimidin-4-one] was < 10 nM; that for `C[C@@H]1COCCN1c1cc(=O)n2c(n1)N(Cc1ccon1)[C@H](C(F)(F)F)CC2` [Example 33, (S)-9-Isoxazol-3-yl-methyl-2-((R)-3-methylmorpholin-4-yl)-8-trifluoromethyl-6,7,8,9-tetrahydro-pyrimido[1,2-a]-pyrimidin-4-one] was < 10 nM. Take `C[C@@H]1COCCN1c1cc(=O)n2c(n1)N(Cc1cnc(Cl)s1)[C@H](C(F)(F)F)CC2` [Example 34, (S)-9-(2-Chloro-thiazol-5-ylmethyl)-2-((R)-3-methyl-morpholin-4-yl)-8-trifluoromethyl-6,7,8,9-tetrahydro-pyrimido[1,2-a]-pyrimidin-4-one]: the IC50 fell in the range of 10 to 100 nM. The value for `C[C@@H]1COCCN1c1cc(=O)n2c(n1)N(Cc1ccc(Cl)nc1)[C@H](C(F)(F)F)CC2` [Example 35, (S)-9-(6-Chloro-pyridin-3-ylmethyl)-2-((R)-3-methyl-morpholin-4-yl)-8-trifluoromethyl-6,7,8,9-tetrahydro-pyrimido[1,2-a]-pyrimidin-4-one] was < 10 nM. The value for `C[C@@H]1COCCN1c1cc(=O)n2c(n1)N(Cc1ccno1)[C@H](C(F)(F)F)CC2` [Example 36, (S)-9-Isoxazol-5-yl-methyl-2-((R)-3-methylmorpholin-4-yl)-8-trifluoromethyl-6,7,8,9-tetrahydro-pyrimido[1,2-a]-pyrimidin-4-one] was < 10 nM; that for `C[C@@H]1COCCN1c1cc(=O)n2c(n1)N(Cc1ccnn1C(F)F)[C@H](C(F)(F)F)CC2` [Example 37, (S)-9-(2-Difluoromethyl-2H-pyrazol-3-ylmethyl)-2-((R)-3-methyl-morpholin-4-yl)-8-trifluoromethyl-6,7,8,9-tetrahydro-pyrimido[1,2-a]-pyrimidin-4-one] was < 10 nM; that for `C[C@@H]1COCCN1c1nc2n(c(=O)c1F)CC[C@@H](C(F)(F)F)N2CC(=O)c1ccccn1` [Example 38, (S)-3-Fluoro-2-((R)-3-methylmorpholin-4-yl)-9-(2-oxo-2-pyridin-2-ylethyl)-8-trifluoromethyl-6,7,8,9-tetrahydro-pyrimido[1,2-a]-pyrimidin-4-one] was < 10 nM. Turning to `COc1cc(N2c3nc(N4CCOC[C@H]4C)c(F)c(=O)n3CC[C@H]2C(F)(F)F)ccn1` [Example 40, (S)-3-Fluoro-9-(2-methoxypyridin-4-yl)-2-((R)-3-Methyl-morpholin-4-yl)-8-trifluoromethyl-6,7,8,9-tetrahydro-pyrimido[1,2-a]-pyrimidin-4-one], the IC50 is < 10 nM. As for `C[C@@H]1COCCN1c1nc2n(c(=O)c1F)CC[C@@H](C(F)(F)F)N2Cc1ccnc(Cl)c1` [Example 41, (S)-9-(2-Chloro-pyridin-4-ylmethyl)-3-fluoro-2-((R)-3-methyl-morpholin-4-yl)-8-trifluoromethyl-6,7,8,9-tetrahydro-pyrimido[1,2-a]-pyrimidin-4-one], the IC50 is < 10 nM. On to `C[C@@H]1COCCN1c1nc2n(c(=O)c1F)CC[C@@H](C(F)(F)F)N2Cc1ncco1` [Example 42, (S)-3-Fluoro-2-((R)-3-methylmorpholin-4-yl)-9-oxazol-2-ylmethyl-8-trifluoromethyl-6,7,8,9-tetrahydro-pyrimido[1,2-a]-pyrimidin-4-one], for which the IC50 was < 10 nM.

Turning to `C[C@@H]1COCCN1c1nc2n(c(=O)c1F)CC[C@@H](C(F)(F)F)N2c1ccc(C2CC2)nc1` [Example 43, (S)-9-(6-Cyclopropyl-pyridin-3-yl)-3-fluoro-2-((R)-3-methyl-morpholin-4-yl)-8-trifluoromethyl-6,7,8,9-tetrahydro-pyrimido[1,2-a]-pyrimidin-4-one], the IC50 was < 10 nM. For the compound `C[C@@H]1COCCN1c1nc2n(c(=O)c1F)CC[C@@H](C(F)(F)F)N2Cc1cocn1` [Example 44, (S)-3-Fluoro-2-((R)-3-methylmorpholin-4-yl)-9-oxazol-4-ylmethyl-8-trifluoromethyl-6,7,8,9-tetrahydro-pyrimido[1,2-a]-pyrimidin-4-one], the IC50 is < 10 nM.
